The values that follow come from publication PMC4848905, “Fragment Screening of Human Aquaporin 1” (International Journal of Molecular Sciences, 2016).

Where two headings read alike, the source gives them in different places. A value given as a limit tells only on which side of the number the result lay.

Data set [1] has as its target T1, hAQP1 (Homo sapiens, UniProt P29972).
T1 construct: made in house; host or cells: Spodoptera frugiperda (Sf9) insect cells, baculovirus vector pFB-LIC-Bse
T1 sequence (P29972 1-269): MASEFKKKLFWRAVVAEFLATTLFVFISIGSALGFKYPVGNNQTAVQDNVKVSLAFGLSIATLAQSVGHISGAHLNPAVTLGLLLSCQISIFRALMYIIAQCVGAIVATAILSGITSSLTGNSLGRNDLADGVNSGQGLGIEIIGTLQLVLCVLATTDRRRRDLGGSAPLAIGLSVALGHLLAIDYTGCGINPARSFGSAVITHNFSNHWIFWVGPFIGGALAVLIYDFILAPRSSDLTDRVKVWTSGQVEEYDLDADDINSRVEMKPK
As to the kind of experiment: Surface plasmon resonance (SPR) fragment binding to immobilized hAQP1. As to conditions: for SPR binding behaviour: sensorgrams 6.25 to 800 µM. As for the experimental part:
Surface Plasmon Resonance measurements were performed using Biacore T-200 (GE Healthcare, Uppsala, Sweden) using the running buffer PBS pH 7.4 supplemented with 1% OG and 5% dimethylsulfoxide (DMSO) at 25 °C. Purified recombinant hAQP1 was directly immobilized onto Biacore Sensor Chip CM5 Research Grade (GE Healthcare, Little Chalfont, UK) using standard amine-coupling chemistry at a flow rate of 5 µL/min. Carboxyl derivatives on CM5 dextran surface were activated with a 10-min 1:1 mixture of 0.2 M N-ethyl-N′-(3-([…])propyl)carbodiimide (EDC) and 50 mM N-hydroxysuccinimide (NHS). The aquaporins were diluted in 10 mM sodium acetate, pH 5.0 and injected across the surface separately. Addition of 0.5 M ethanolamine–HCl at pH 8.5 for 10 min was used to block unreacted activated carboxyl derivates.
The Maybridge Ro3 Diversity Fragment Library (Thermo Fisher Scientific, Waltham, MA, USA) consisting of 1500 fragments was used for screening. These fragments have molecular weight ranging from 82.1 to 295.3 Da, with an experimental guarantee of solubility of ≥1 mM in aqueous phosphate buffer and ≥200 mM in DMSO. They satisfy the “rule of three” criteria, i.e., a molecular weight of ≤300 Da, a cLogP of ≤3.0, ≤3 H-bond acceptors or H-bond donors, ≤3 rotatable bonds, and a polar surface area of ≤60 Å^2. Lyophilized powder of each fragments were pre-dissolved in 100% DMSO prior to the screening campaign. A volume of 10 µL of a 4 mM stock solution of each fragment in 100% DMSO was added to 190 µL of a buffer composed of 1.06 × PBS + 1.06% OG so as to obtain a final fragment concentration of 200 µM in PBS + 1% OG + 5% DMSO in a volume of 200 µL. We note that although a higher screening concentration in the mM range would in principle result in higher protein surface occupancy, allowing the detection of weaker interactions, this may also increase the probability of non-specific binding and/or promiscuously binding colloidal aggregates. In addition, the presence of salt and detergent in the buffer helps to stabilize the hAQP1 and also reduces the chances of non-specific binding. The DMSO solvent has a high refractive index and can be a major cause of false positives and plate-to-plate baseline variations. Therefore, it was important to accurately match its concentration in the sample buffer and the running buffer throughout the screening to minimize data inconsistencies during analysis.
The fragments were injected across a reference channel and hAQP1 channel for 2 min at flow rate of 30 µL/min, and then allowed to dissociate in running buffer for another min. Each fragment was injected in duplicates. DMSO calibration was performed for DMSO correction. Reproducibility was monitored with duplicate injections of each sample. No regeneration step was necessary as all fragments were dissociated. Previously validated positive controls, NSC226080 and NSC624169 (not shown), were included over the course of screening to monitor the surface protein activity.
These fragments, together with the positive controls, were diluted into 25, 50, 100 and 200 µM and tested over the same surfaces under the same conditions. DMSO calibration was performed for DMSO correction. Non-stoichiometric binders (potential fragments that aggregate, precipitate, binding non-specifically, etc.) were excluded. Good binders were assayed in a broader concentration range from 6.25 to 800 µM in 2-fold dilutions under the same conditions.
Raw sensorgrams were corrected for DMSO and double referenced (subtraction of the reference flow cell followed by subtraction of the closest buffer blank), which responses were corrected with a reference flow cell and a blank buffer injections. Corrected sensorgrams were y-axis and x-axis corrected at the point of fragment injection. Responses for the varied concentrations for a fragment were overlaid. […]

For data set [2], the target named is T1, hAQP1. As to the kind of experiment: Thermal aggregation shift assay (differential static light scattering, DSLS). The data set is classed as binding. Details: key to ΔTagg (+/−): positive (+) Thermal Shift; ΔTagg (+/−). As to conditions: for ΔTagg (+/−): 1 mM of each fragment; for Tagg: hAQP1 incubated in 1 mM of fragment, hAQP1 alone 54.6 ± 0.1; for dose-dependency of hAQP1 stabilization: increasing concentration of fragment; for Tagg of hAQP1: secondary dose-response assay. As for the experimental part: Temperature-dependent protein aggregation was measured with static light scattering (Stargazer-384, Harbinger Biotech, Markham, ON, Canada) as previously described with modifications. Briefly, purified hAQP1 in PBS pH 7.4 and 1% OG at a concentration of 0.2 mg/mL, incubated with test compound or fragment at the appropriate concentration at room temperature for 15 min, and aliquoted in a clear-bottom 384-well plate (Nunc, Roskilde, Denmark) to a volume of 45 µL in triplicate. The final concentration of DMSO was kept at 5%. Mineral oil (45 µL) covered the sample to prevent evaporation. The sample was heated from 25 to 80 °C at a rate of 1 °C per minute. Incident light was shone on the protein drop from beneath at a 30° angle, and a CCD camera was used to measure the scattered light intensity every 30 s to monitor protein aggregation. Data collated was analyzed using the Bioactive software (Harbinger Biotech). Intensities were plotted as a function of temperature and fitted to the Boltzmann equation by non-linear regression. The point of inflection of the fitted curve defined the temperature of aggregation (Tagg).

A further data set concerns human red blood cells. As to the kind of experiment: Stopped-flow water permeability assay using human red blood cells. The class given is cell-based. To be noted: tested at 1 mM. The procedure:
As indicated in the introduction, the binders found should not necessarily show inhibition. Nevertheless, we performed stopped-flow assays to test the effects of the seven fragments in Figure 6 on hAQP1 water permeability using human red blood cells. Based on the values of the rate constants of the scattering increase, none of these fragments produced a significant reduction in water permeability when tested at 1 mM (not shown). Several factors may account for this. […] In addition, hAQP1 in red blood cells is highly glycosylated compared to the hAQP1 purified from insect cells, and this may affect binding affinity. Another factor is the orientation of the protein in the membrane, as in theory only one side of the protein (extracellular) is exposed to the drug in RBC assays, whereas both extramembrane domains are exposed when the protein is solubilized in micelles. Another factor, also noted by Seeliger et al., is the high density of AQP1 at the membrane of red blood cells. […] We are at present unable to explain this behavior or relate it to inhibition of hAQP1.

The target of data set [3] is T1, hAQP1. The experiment in a line: Stopped-flow water permeability assay of hAQP1 proteoliposomes. The class given is biochemical. As for the experimental part: Liposomes used in this work were prepared using film rehydration. In this procedure, a thin lipid film of Escherichia coli lipids is formed by drying under a nitrogen stream lipid extract powder (Avanti Polar Lipids Inc., Alabaster, AL, USA) in chloroform. After at least 2 h in a vacuum desiccator, purified aquaporin protein in detergent was added and supplemented with reconstitution buffer (20 mM Tris–HCl pH 8.0) to obtain a protein-to-lipid molar ratio of 1:400. A volume of 1 mL of this reconstitution mixture was incubated for 1 h at room temperature. Uniform sized liposomes were obtained by extrusion through a 400 nm pore-size polycarbonate membrane using an Avestin extruder. […]
The water permeability of proteoliposomes reconstituted with purified aquaporin was determined in a SX20 stopped-flow spectrometer (Applied Photophysics, Leatherhead, UK) with a dead time of 1.1 ms. […] The solution osmolarities were measured using a vapor pressure osmometer (Wescor, Logan, UT, USA). […] The measured average diameter of control liposomes and hAQP1-proteoliposomes were 368 and 262 nm, respectively.
Data was acquired by the Pro-Data SX software and analyzed by Pro-Data Viewer software (Applied Photophysics), where the measured light scattering intensity signals were fitted to an exponential function to obtain the rate constants. […]

The mark [4] stands for this setting: 1:1 steady-state binding model, 6.25 to 800 µM in 2-fold dilutions, 25 °C, read-out: SPR (KD).
The mark [5] stands for this setting: inset table of the Figure 5 sensorgram, read-out: KD (inset table).

In the case of `NCCNc1cccc2ccccc12` [AC42399], the dissociation constant (Kd) on hAQP1 [1] (setting [4]) worked out at 546 µM. For the same molecule, the SPR binding behaviour entry at hAQP1 [1] is listed as “fast-on, fast-off kinetics”. Moreover, on hAQP1 [2], the “ΔTagg (+/−)” value was “−” and the Tagg was determined as 48.0 °C.

For the molecule `O=Nc1c(O)ccc2ccccc12` [AC15153], the equilibrium dissociation constant (Kd) on hAQP1 [1] (setting [4]) and on hAQP1 [1] (setting [5]) was 337 µM in each case.

At hAQP1 [1] (KD (inset table), inset table of the Figure 5 sensorgram), `NCCc1coc2ccccc12` [CC40813] returned an equilibrium dissociation constant (Kd) of 133 µM. On hAQP1 [1] (SPR (KD), 1:1 steady-state binding model, 6.25 to 800 µM in 2-fold dilutions, 25 °C), this molecule registered a Kd of 133 µM. In addition, the SPR binding behaviour result at hAQP1 [1] is on record as “binding did not achieve saturation equilibrium at higher concentrations”. Besides, on hAQP1 [2], the “ΔTagg (+/−)” value was “−” and the Tagg came to 50.3 °C.

`Nc1cccc(CN2CCCC2)c1` [CC55714]: at hAQP1 [2], the “ΔTagg (+/−)” value is “+” and the Tagg came to 63.6 ± 0.4 °C.

On to `c1ccc2c(c1)CCNCC2` [MO08607], for which the dissociation constant Kd at hAQP1 [1] (setting [4]) and on hAQP1 [1] (setting [5]) was 962 µM in each case. In addition, the “ΔTagg (+/−)” value at hAQP1 [2] is on record as “+”. Further, the Tagg at hAQP1 [2] amounted to 59.0 ± 0.3 °C. For the same molecule, at hAQP1 [2], the “dose-dependency of hAQP1 stabilization” value is listed as “can be considered a true binder”. Further, the “Tagg of hAQP1” value on hAQP1 [2] (50 μM) is 61.8 ± 0.6 °C; at hAQP1 [2] (400 µM) it was 66.3 ± 0.1 °C; on hAQP1 [2] (2000 µM) it was 86.7 ± 7.2 °C.

`NCCNCc1ccccc1` [SB01744]: on hAQP1 [2], the “ΔTagg (+/−)” value is listed as “+”, the Tagg came to 58.7 ± 0.2 °C and the “dose-dependency of hAQP1 stabilization” value is on record as “could not be interpreted due to inconsistencies in the results”.

On to `OCc1cccc(-c2ccco2)c1` [CC46109], for which the Kd on hAQP1 [1] (setting [4]) and on hAQP1 [1] (setting [5]) was 982 µM in each case. The “ΔTagg (+/−)” value at hAQP1 [2] was “+”. For the same molecule, the “amplitude of the stopped-flow traces” value with human red blood cells was “large amplitude reduction in the traces”.

On to `Nc1ccc2c(c1)OCCO2` [SB00353], for which the dissociation constant Kd on hAQP1 [1] (setting [4]) and on hAQP1 [1] (setting [5]) was 902 µM each time. For the same molecule, the “ΔTagg (+/−)” value at hAQP1 [2] is recorded as “−”. The Tagg on hAQP1 [2] turned out to be 51.1 °C.

As for `CNCc1scc2c1OCCO2` [CC47846], on hAQP1 [2], the “ΔTagg (+/−)” value was “+” and the Tagg is 70.0 ± 1.2 °C.

Turning to `NCc1ccc(-c2ccc(C(F)(F)F)cn2)cc1` [CC53013], the Kd at hAQP1 [1] (setting [4]) was 1310 µM. For the same molecule, the dissociation constant (Kd) on hAQP1 [1] (setting [5]) was 1310 µM. On hAQP1 [1], the SPR binding behaviour entry is “fast-on, fast-off kinetics”. For the same molecule, on hAQP1 [2], the “ΔTagg (+/−)” value is on record as “−” and the Tagg is 48.6 °C.

As to `NCc1cccc(N2CCCCC2)n1` [CC38113], the Kd at hAQP1 [1] (setting [4]) was found to be 62 µM. Besides, the Kd at hAQP1 [1] (setting [5]) amounted to 62.2 µM. For the same molecule, at hAQP1 [2], the “ΔTagg (+/−)” value was “+” and the Tagg turned out to be 63.3 ± 0.1 °C. The “amplitude of the stopped-flow traces” value with human red blood cells is “large amplitude reduction in the traces”.

Take `Cc1cc2cc(N)ccc2[nH]1` [AC34875]: the equilibrium dissociation constant (Kd) at hAQP1 [1] (setting [4]) and on hAQP1 [1] (setting [5]) was 225 µM in each case. Besides, the SPR binding behaviour entry at hAQP1 [1] was “binding did not achieve saturation equilibrium at higher concentrations”. On hAQP1 [2], the “ΔTagg (+/−)” value is “−”. On hAQP1 [2], the Tagg came out at 50.9 °C.

For the molecule `Nc1snnc1-c1ccc(C(F)(F)F)cc1` [MO00656], the dissociation constant (Kd) on hAQP1 [1] (setting [4]) is above 800 µM. Besides, on hAQP1 [1], the SPR binding behaviour entry is recorded as “fast-on, fast-off kinetics”. Besides, at hAQP1 [2], the “ΔTagg (+/−)” value is “−” and the Tagg worked out at 51.8 °C.

As for `[Cl][Hg][Cl]` [HgCl2, mercuric chloride], the “average fitted rate constant (k)” value at hAQP1 [3] (300 µM, 23 °C, means ± S.E., n = 6, without inhibitor 109.4 (±1.9)) is given as 8.56 (±0.03) s^−1. Moreover, the “osmotic water permeability coefficient (Pf)” value on hAQP1 [3] (proteoliposomes pre-incubated with 300 µM, without inhibitor Pf = 0.053) is 0.0041 cm/s.

Regarding `OC1CCCNC1` (stereo not drawn) [AC36708], at hAQP1 [2], the “ΔTagg (+/−)” value was “+” and the Tagg amounted to 62.9 ± 0.4 °C.
